The source of these data is US8563513B2, “Parathyroid hormone peptides and parathyroid hormone-related protein peptides and methods of use” (Van Andel Research Institute, priority 2009, dated 2013).

Read-outs that look alike come from different tables or passages of the source. Where no end group is shown, it is not given here.

Assay [1] has as its target T1, G protein-uncoupled receptor (R0) conformation of PTH1R (Homo sapiens, UniProt Q03431).
T1 sequence (Q03431 27-593): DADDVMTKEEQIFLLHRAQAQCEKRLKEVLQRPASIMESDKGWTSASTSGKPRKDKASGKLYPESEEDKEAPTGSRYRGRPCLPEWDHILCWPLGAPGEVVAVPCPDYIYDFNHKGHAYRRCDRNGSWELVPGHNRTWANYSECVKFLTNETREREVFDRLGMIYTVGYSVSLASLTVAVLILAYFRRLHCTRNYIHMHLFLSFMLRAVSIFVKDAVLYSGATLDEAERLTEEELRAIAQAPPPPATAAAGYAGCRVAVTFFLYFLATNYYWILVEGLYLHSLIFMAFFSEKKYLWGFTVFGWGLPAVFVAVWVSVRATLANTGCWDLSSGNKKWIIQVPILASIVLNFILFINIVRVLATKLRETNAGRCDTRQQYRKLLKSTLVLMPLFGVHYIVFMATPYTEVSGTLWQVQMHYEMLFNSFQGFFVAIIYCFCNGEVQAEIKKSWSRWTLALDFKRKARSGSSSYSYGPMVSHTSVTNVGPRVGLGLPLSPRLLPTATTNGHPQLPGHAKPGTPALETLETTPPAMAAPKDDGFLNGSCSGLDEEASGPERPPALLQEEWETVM
The assay is described as follows: Receptor binding assay in cell membranes, R0 conformation. The note with it: for RO/RG: ratio of R0 and RG IC50; for R0 affinity compared to wild-type: in words. As for the experimental part:
(§1) Receptor binding assay. Peptide binding to the G protein-uncoupled receptor (R0) and G protein-coupled receptor (RG) conformations in cell membranes was assessed as previously described (26).
(§2) Experimentally, the R0 conformation is studied by including GTPγS in the reactions to uncouple receptor and G protein and the RG conformation is studied by co-expressing the receptor with a dominant negative form of Gαs (23, 25).

In assay [2] the target is T2, G protein-coupled receptor (RG) conformation of PTH1R (Homo sapiens, UniProt Q03431).
T2 construct: expressed in transfected cells
T2 sequence (Q03431 27-593): T1 sequence (Q03431 27-593)
The assay is described as follows: Receptor binding assay in cell membranes, RG conformation. As to conditions: for IC50: n = 3, receptor co-expressed with dominant negative Gαs. As for the experimental part: as §1, §2

The target in assay [3] is T1, G protein-uncoupled receptor (R0) conformation of PTH1R. As to conditions: in words, reference (26); cited from earlier work.
Assay [4] concerns the target T2, G protein-coupled receptor (RG) conformation of PTH1R. As to conditions: in words, reference (26); cited from earlier work.
For assay [5], the target named is T3, PTH1R ECD (Homo sapiens, UniProt Q03431).
T3 sequence (Q03431 27-186 limits assumed): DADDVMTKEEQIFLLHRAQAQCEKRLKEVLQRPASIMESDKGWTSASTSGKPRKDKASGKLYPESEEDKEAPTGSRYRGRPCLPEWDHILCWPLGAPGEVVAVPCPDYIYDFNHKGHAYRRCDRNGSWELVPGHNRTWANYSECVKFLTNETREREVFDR
As to conditions: previous work (27); cited from earlier work.

The target in assay [6] is T4, MBP-PTH1R ECD-H6 fusion protein (Homo sapiens, UniProt Q03431).
T4 construct: fusion protein containing residues 29-187 of PTH1R fused to the C-terminus of MBP; made in house; host or cells: E. coli
T4 sequence (Q03431 29-187): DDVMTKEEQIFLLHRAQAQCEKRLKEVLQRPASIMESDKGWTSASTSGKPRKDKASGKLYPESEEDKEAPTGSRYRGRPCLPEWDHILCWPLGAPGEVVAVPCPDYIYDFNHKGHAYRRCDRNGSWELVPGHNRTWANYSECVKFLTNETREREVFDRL
The assay is described as follows: AlphaScreen ECD-peptide competition binding assay. As to conditions: for ECD-binding (ability to compete biotin-PTH / MBP-PTH1R-ECD interaction): single point, peptide 20 μM, in words; for IC50: biotinylated PTH(7-34)NH2 23 nM, MBP-PTH1R ECD 23 nM, read-out: IC50, competition of the AlphaScreen interaction. How it is done: ECD-peptide binding assays. The binding of peptides to the MBP-PTH1R ECD-H6 fusion protein was assessed using an AlphaScreen assay (Perkin-Elmer). […] The pre-coupling reactions were mixed, un-labeled competitor peptides were added as indicated, and the reactions were incubated 4 to 5 hrs to reach equilibrium. Photon counts were recorded in 384-well optiplates using an Envision 2104 plate reader (Perkin-Elmer). Prism 5.0 software (GraphPad Software, San Diego) was used to fit the data to a fixed-slope dose-response inhibition equation for determination of IC50 values. Real-time analysis of the binding of peptides to the isolated PTH1R ECD using the Octet Red system (ForteBio) was performed as described in below.

Assay [7] has as its target T5, hPTH1R (Homo sapiens, UniProt Q03431).
T5 construct: expressed in transfected cells; host or cells: COS-1 cells (ATCC), transient, DEAE-dextran
T5 sequence (Q03431 27-593): T1 sequence (Q03431 27-593)
The assay is described as follows: cAMP accumulation dose-response assay in COS cells. The assay is classed as cell-based. In general terms: cAMP levels reflect the balance of adenylyl cyclase and phosphodiesterase activity.
Method: COS cells transiently expressing PTH1R were stimulated with the indicated peptides for 30 min at 37° C. after which the cells were lysed and cAMP content was assessed. […] The cells were stimulated with the indicated peptide for 10 min at room temperature, the ligand was washed out, and cAMP accumulation was assessed at the indicated times after wash out. The results are the average of duplicate samples and are normalized to the level of cAMP induced during the initial stimulation.
cAMP assays. COS-1 cells obtained from American Type Culture Collection (Manassas, Va.) were cultured in Dulbecco's modified Eagle's medium supplemented with 10% fetal bovine serum in a 37° C./5% CO2 incubator. 500,000 cells were seeded in a 10 cm dish and transfected the following morning by the DEAE-dextran method with 3 μg pcDNA3.1 vector encoding hPTH1R. Approximately 40,000 transfected cells were seeded in each well of a 96-well plate 24 hr post-transfection. 48 hrs post-transfection the cells were washed twice with PBS, pH 7.4 and stimulated with peptide. […] The reactions were stopped with cold 6% perchloric acid and the cell lysates were neutralized with KHCO3. cAMP was measured with a LANCE cAMP kit (Perkin-Elmer) according to the manufacturer's instructions. […]

The mark [8] stands for this setting: read-out: IC50 Log M RG (converted).

For orientation: IC50 means the concentration at which inhibition is half-maximal. For “SVSEIQLMHNLGKHLNSMERVEWLRKKIQDIHNF-NH2 [L28I/V31I]”, the RO/RG in assay [1] amounted to 135. In addition, the values for the half-maximal inhibitory concentration (IC50) in assay [2] (read-out: IC50 (nM) RG) and in assay [2] (setting [8]) were 0.31 nM and 0.251 nM, respectively.

Regarding “SVSEIQLMHNLGKHLNSMERVEWLRKKLQDIHNF-NH2 [V31I]”, the RO/RG in assay [1] stood at 110. Moreover, the half-inhibitory concentration (IC50) in assay [2] (read-out: IC50 (nM) RG) was 0.31 nM; in assay [2] (setting [8]), 0.251 nM.

In the case of “SVSEIQLMHNLGKHLNSMERVEFLRKLLQDVHNF-NH2 [W23F/K27L]”, the RO/RG in assay [1] was 26.4. The IC50 in assay [2] (setting [8]) is 0.251 nM.

For the compound “SVSEIQLMHNLGKHLNSMERVEWLRKLLQDVHNF-NH2 [K27L]”, the RO/RG in assay [1] is 11.9.

“PTH(1-28): PTH fragment 1-28, literature peptide (26) (SVSEIQLMHNLGKHLNSMERVEWLRKKL; Parathyroid hormone; UniProt P01270 32-59, looked up, fragment)”: in assay [3], the “RG-selectivity compared to PTH(1-34)” value is given as “more RG-selective”. Further, the “RG affinity compared to PTH(1-34)” value in assay [4] is on record as “diminished RG affinity”.

One may read the Kd as the concentration at which binding is half-saturated. With “PTH(15-34)NH2: C-terminally amidated 15-34 fragment of PTH (LNSMERVEWLRKKLQDVHNF-NH2)”, in assay [5], the Kd is ~1000 nM.

In the case of “SVSEIQLMHNLGKHLNSMERVEFLRKKLQDVHNF-NH2 [W23F]”, the RO/RG in assay [1] was 59. Moreover, in assay [2] (setting [8]), the IC50 is 0.2 nM.

As to “SVSEIQLMHNLGKHLNSMERVEWLRKKIQDVHNF-NH2 [L28I]”, the IC50 is 3.98 nM in assay [1] (n = 3, GTPγS to uncouple receptor and G protein, read-out: IC50 Log M RO (converted)); 0.1 nM in assay [2] (read-out: IC50 (nM) RG). Also, the RO/RG in assay [1] was found to be 45.

Turning to “SVSEIQLMHNLGKHLNSMERVEWLRKLLQDIHNF-NH2 [K27L/V31I]”, the RO/RG in assay [1] turned out to be 36.8. Also, the half-inhibitory concentration (IC50) in assay [2] (setting [8]) was 0.501 nM.

With `CC[C@H](C)[C@H](NC(=O)[C@H](CC(C)C)NC(=O)[C@H](CCCCN)NC(=O)[C@H](CCCNC(=N)N)NC(=O)[C@H](CC(C)C)NC(=O)[C@H](Cc1c[nH]c2ccccc12)NC(=O)[C@H](CCC(=O)O)NC(=O)[C@@H](NC(=O)[C@H](CCCNC(=N)N)NC(=O)[C@H](CCC(=O)O)NC(=O)[C@H](CCSC)NC(=O)[C@H](CO)NC(=O)[C@H](CC(N)=O)NC(=O)[C@H](CC(C)C)NC(=O)[C@H](Cc1c[nH]cn1)NC(=O)[C@H](CCCCN)NC(=O)CNC(=O)[C@H](CC(C)C)NC(=O)[C@H](CC(N)=O)NC(=O)[C@H](Cc1c[nH]cn1)NC(=O)[C@H](CCSC)NC(=O)[C@H](CC(C)C)NC(=O)[C@H](CCC(N)=O)NC(=O)[C@@H](NC(=O)[C@H](CCC(=O)O)NC(=O)[C@H](CO)NC(=O)[C@@H](NC(=O)[C@@H](N)CO)C(C)C)[C@@H](C)CC)C(C)C)C(=O)N[C@@H](CCC(N)=O)C(=O)N[C@@H](CC(=O)O)C(=O)N[C@H](C(=O)N[C@@H](Cc1c[nH]cn1)C(=O)N[C@@H](CC(N)=O)C(=O)N[C@@H](Cc1ccccc1)C(N)=O)C(C)C` [K27L/L28I], the IC50 in assay [2] (setting [8]) was 0.316 nM.

In the case of “SVSEIQLMHNLGKHLNSMERVEFLRKKLQDIHNF-NH2 [W23F/V31I]”, the “ECD-binding (ability to compete biotin-PTH / MBP-PTH1R-ECD interaction)” value in assay [6] was “poor ECD-binding”. Moreover, in assay [1], the “R0 affinity compared to wild-type” value was “dramatically reduced R0 affinity” and the RO/RG is 386. In addition, in assay [2] (in words), the “RG affinity compared to wild-type” value is “normal RG affinity”. The “maximal cAMP levels relative to those obtained with the wt peptides” value in assay [7] (COS cells transiently expressing PTH1R) is given as ~80%. Moreover, in assay [7] (in words), the “potency of cAMP response compared to wt peptides” value is reported as “essentially the same as the wt peptides”.

Regarding “SVSEIQLMHNLGKHLNSMERVEFLRKLIQDIHNF-NH2 [W23F/K27L/L28I/V31I]”, the RO/RG in assay [1] is 68. Moreover, the half-maximal inhibitory concentration (IC50) in assay [2] (setting [8]) was 0.631 nM.

For “GKHLNSMERVEWLRKKLQDVHNF-NH2 [PTH(12-34)NH2, reference compound]”, the IC50 in assay [6] was ~1000 nM.

Consider “AVSEHQLLHDKGKSIQDLRRRFWLHHKLAEVHTA-NH2 [F23W/L27K/I28L/I31V]”, for which, in assay [1], the “R0 affinity compared to wild-type” value is “slightly decreased R0 affinity” and the RO/RG worked out at 586. The concentration for half-maximal inhibition (IC50) in assay [2] (setting [8]) is 0.0794 nM.

In the case of “SVSEIQLMHNLGKHLNSMERVEFLRKKIQDVHNF-NH2 [W23F/L28I]”, the RO/RG in assay [1] came to 190. The 50% inhibitory concentration (IC50) in assay [2] (read-out: IC50 (nM) RG) was found to be 0.2 nM.

On to “quadruply mutant PTHrP peptide: PTHrP(12-34)NH2 scaffold with swaps at all four positions 23′, 27′, 28′, 31′ (GKSIQDLRRRFWLHHKLAEVHTA-NH2)”, for which, in assay [6], the “ECD-binding (ability to compete biotin-PTH / MBP-PTH1R-ECD interaction)” value is reported as “normal binding to the ECD”.

For the compound `CC[C@H](C)[C@H](NC(=O)[C@H](CC(C)C)NC(=O)[C@H](Cc1c[nH]cn1)NC(=O)[C@H](Cc1c[nH]cn1)NC(=O)[C@H](CC(C)C)NC(=O)[C@H](Cc1ccccc1)NC(=O)[C@H](Cc1ccccc1)NC(=O)[C@H](CCCNC(=N)N)NC(=O)[C@H](CCCNC(=N)N)NC(=O)[C@H](CCCNC(=N)N)NC(=O)[C@H](CC(C)C)NC(=O)[C@H](CC(=O)O)NC(=O)[C@H](CCC(N)=O)NC(=O)[C@@H](NC(=O)[C@H](CO)NC(=O)[C@H](CCCCN)NC(=O)CN)[C@@H](C)CC)C(=O)N[C@@H](C)C(=O)N[C@@H](CCC(=O)O)C(=O)N[C@H](C(=O)N[C@@H](Cc1c[nH]cn1)C(=O)N[C@H](C(=O)N[C@@H](C)C(=O)O)[C@@H](C)O)[C@@H](C)CC` [PTHrP(12-34)OH, reference compound], in assay [6], the IC50 was ~2000 nM.
